Data on 7 compounds can be found in patent publication US7888487B2, “Pyrazole derivative, medicinal composition containing the same, medicinal use thereof and intermediate in producing the same” (Kissei Pharmaceutical Co., Ltd., priority 2002, dated 2011).

For the first assay, the target named is T1, human 1,5-anhydroglucitol/fructose/mannose transporter (human SMINT) (Homo sapiens, UniProt Q2M3M2).
T1 construct: expressed in transfected cells; host or cells: COS-7 cells (RIKEN CELL BANK RCB0539), transient lipofection of SMINT/pME18S-FL
T1 sequence (Q2M3M2 1-681): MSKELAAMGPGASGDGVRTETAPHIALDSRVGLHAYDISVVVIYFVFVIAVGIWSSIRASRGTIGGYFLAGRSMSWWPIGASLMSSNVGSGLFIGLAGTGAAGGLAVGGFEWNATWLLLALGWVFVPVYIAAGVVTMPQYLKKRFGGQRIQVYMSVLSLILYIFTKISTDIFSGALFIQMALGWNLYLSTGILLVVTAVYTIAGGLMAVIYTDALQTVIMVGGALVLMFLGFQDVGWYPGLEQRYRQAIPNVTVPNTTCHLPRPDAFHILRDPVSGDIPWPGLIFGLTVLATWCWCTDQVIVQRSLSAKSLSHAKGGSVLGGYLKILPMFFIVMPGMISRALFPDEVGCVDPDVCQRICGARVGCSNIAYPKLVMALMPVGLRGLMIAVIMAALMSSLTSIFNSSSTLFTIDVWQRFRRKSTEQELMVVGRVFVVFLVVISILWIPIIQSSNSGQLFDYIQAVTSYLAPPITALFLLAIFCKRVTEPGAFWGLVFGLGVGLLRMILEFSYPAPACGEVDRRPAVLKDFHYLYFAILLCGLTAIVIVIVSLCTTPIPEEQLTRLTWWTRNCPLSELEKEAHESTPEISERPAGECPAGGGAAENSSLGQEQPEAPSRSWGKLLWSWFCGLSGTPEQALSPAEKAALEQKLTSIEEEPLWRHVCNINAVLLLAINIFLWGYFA
Nature of the assay: Confirmatory test for inhibitory activity on human 1,5-anhydroglucitol/fructose/mannose transporter (inhibition assay of methyl-α-D-glucopyranoside uptake activity). It is filed as cell-based. The settings on record: COS-7 cells transiently expressing human SMINT; uptake of 1 mM methyl-α-D-glucopyranoside (α-MG), 1 hour, 37° C.; logit plot analysis. The protocol: (§1) Human SMINT-carrying expression plasmid SMINT/pME18S-FL (denotation of bacteria: Escherichia coli/SMINT2010324), which was deposited with NITE Patent Microorganisms Depositary on Mar. 12, 2002, was transfected to COS-7 cells (RIKEN CELL BANK RCB0539) by lipofection method. LIPOFECTAMINE PLUS reagent (Invitrogen) was used as the lipofection reagent. A day before the lipofection, COS-7 cells were suspended in D-MEM medium (Invitrogen) at 6×10^6 cells per 1 mL, and dispensed 50 μL per well of 96-well plate. The lipofection was performed by the following methods. For each well, 0.1 μg of the plasmid was diluted with 10 μL of D-MEM, added 0.5 μL of PLUS reagent, mixed gently, and kept stand for 15 minutes to prepare Plasmid Dilute Solution. For each well, 0.5 μL of LIPOFECTAMINE reagent was diluted with 10 μL of D-MEM to prepare LIPOFECTAMINE Dilute Solution. The Plasmid Dilute Solution was mixed with an equal volume of the LIPOFECTAMINE Dilute Solution, kept stand for 15 minutes, dispensed 20 μL per well of cell culture medium, and incubated at 37° C. under 5% CO2 for 5 hours. Then D-MEM containing 16.7% fetal bovine serum (Sanko Jun-yaku) was dispensed 100 μL per well. After 2 days culture, the cells were used for the inhibition assay of methyl-α-D-glucopyranoside uptake activity.
Confirmatory Test for Inhibitory Activity on Human 1,5-anhydroglucitol/fructose/mannose Transporter
(§2) 1) Preparation of Cells Transiently Expressing Human SMINT
The cells were prepared according to the method described in 1) of Test Example 2.
2) Inhibition Assay of methyl-α-D-glucopyranoside Uptake Activity
(§3) To Uptake Buffer consisting of 140 mM sodium chloride, 2 mM potassium chloride, 1 mM calcium chloride, 1 mM magnesium chloride, 10 mM 2-[2-(2-hydroxyethyl)-1-piperazinyl]-ethanesulfonic acid, and 5 mM tris(hydroxymethyl)aminomethane (pH 7.4), was added methyl-α-D-glucopyranoside (α-MG) composed of its non-radiolabeled form and ^14C-labeled form at 1 mM as the final concentration. For measurement of basal uptake, Basal Buffer was prepared by the addition of 140 mM choline chloride instead of sodium chloride of the Uptake Buffer. In order to determine the substrate specificity among natural sugars, natural sugars were solubilized in distilled water, diluted with distilled water into appropriate concentrations, and added to the Uptake Buffer to prepare Assay Buffer. […] To the cell lysates were added 150 μL per well of MicroScint 40 (Packard), mixed well, and the radioactivity was measured in a microscintillation counter TOPCOUNT (Packard). α-MG uptake by the cells treated with each concentration of test compounds was calculated as relative activity to control group, which is set as 100% uptake after deducting the basal uptake. […]
Consider `COc1ccc(Cc2c(O[C@@H]3O[C@H](CO)[C@@H](O)[C@H](O)[C@H]3O)nn(C(C)C)c2-c2ccc(OC)cc2)cc1` [Example 1], for which the IC50 (usually the concentration that gives 50% inhibition) amounted to 92 nM. `CC(C)c1c(Cc2ccccc2)c(O[C@@H]2O[C@H](CO)[C@@H](O)[C@H](O)[C@H]2O)nn1C(C)C` [Example 87, 4-Benzyl-3-(β-D-glucopyranosyloxy)-1,5-diisopropyl-1H-pyrazole] had an IC50 of 444 nM. Consider `COc1ccc(Cc2c(O[C@@H]3O[C@H](CO)[C@@H](O)[C@H](O)[C@H]3O)nn(-c3ccccc3F)c2C(C)C)cc1` [Example 99], for which half-maximal inhibition (IC50) was put at 245 nM. For `COc1ccc(Cc2c(O[C@@H]3O[C@H](CO)[C@@H](O)[C@H](O)[C@H]3O)nn(C(C)C)c2-c2ccc3c(c2)OCCO3)cc1` [Example 119], the midpoint of inhibition, the IC50, lay at 296 nM. This IC50 and that of the compound before are within 1.5-fold of each other.

Another assay has as its target T2, human SMINT (Homo sapiens, UniProt Q2M3M2).
T2 construct: expressed in transfected cells; host or cells: COS-7 cells (RIKEN CELL BANK RCB0539), transient lipofection of SMINT/pME18S-FL
T2 sequence (Q2M3M2 1-681): T1 sequence (Q2M3M2 1-681)
Nature of the assay: Confirmatory test for substrate specificity of human SMINT (inhibition assay of methyl-α-D-glucopyranoside uptake activity with natural sugars). It is filed as cell-based. The settings on record: COS-7 cells transiently expressing human SMINT; 1 mM α-MG, 1 hour, 37° C.
Text: Confirmatory Test for Substrate Specificity of Human SMINT
as §2
as §1, with “After 2 days culture, the cells were used for the inhibition assay of methyl-α-D-glucopyranoside uptake activity.” left out
as §3, with “concentration.” for “concentration. For measurement of basal uptake, Basal Buffer was prepared by the addition of 140 mM choline chloride instead of sodium chloride of the Uptake Buffer. In order to determine the substrate specificity among natural sugars, natural sugars were solubilized in distilled water, diluted with distilled water into appropriate concentrations, and added to the Uptake Buffer to prepare Assay Buffer.”
Regarding `OC[C@H]1OC[C@H](O)[C@@H](O)[C@@H]1O` [1,5-anhydroglucitol], the “recognition as substrate by SMINT (inhibition of α-MG uptake, FIG. 2)” value was “recognizes”. As to `O=C(CO)[C@@H](O)[C@H](O)[C@H](O)CO` [fructose], the “recognition as substrate by SMINT (inhibition of α-MG uptake, FIG. 2)” value is recorded as “recognizes”. As for `O=C[C@H](O)[C@@H](O)[C@@H](O)[C@H](O)CO` [galactose], the “recognition as substrate by SMINT (inhibition of α-MG uptake, FIG. 2)” value is reported as “not”.
